Measurements: patent EP2326328B1, “USE OF DIHYDRALAZINE FOR THE TREATMENT OF DISEASES RELATED TO ELEVATED SEMICARBAZIDE SENSITIVE AMINE-OXIDASE (SSAO) ACTIVITY” (Semmelweis Egyetem, priority 2008, dated 2010)

Key:
[1] = blood pressure of treated rats, determined in an invasive way; format: in vivo; conditions: sc 0.1 or 0.01 M solution (0.1 ml/100 g) once daily for 1-5 days, compared to the control group
Description: The blood pressure of the animals was determined in an invasive way. […]

SSAO = molecular target: T1, SSAO (Homo sapiens, UniProt Q16853); assay: serum SSAO activity of treated type 2 diabetic patients; format: in vivo; conditions: for SSAO activity (pmol/mg protein/hour): serum, oral 14.5 mg dihydralazine sulphate twice daily
T1 construct: from tissue; host or cells: human serum
T1 sequence (Q16853 29-763 limits assumed): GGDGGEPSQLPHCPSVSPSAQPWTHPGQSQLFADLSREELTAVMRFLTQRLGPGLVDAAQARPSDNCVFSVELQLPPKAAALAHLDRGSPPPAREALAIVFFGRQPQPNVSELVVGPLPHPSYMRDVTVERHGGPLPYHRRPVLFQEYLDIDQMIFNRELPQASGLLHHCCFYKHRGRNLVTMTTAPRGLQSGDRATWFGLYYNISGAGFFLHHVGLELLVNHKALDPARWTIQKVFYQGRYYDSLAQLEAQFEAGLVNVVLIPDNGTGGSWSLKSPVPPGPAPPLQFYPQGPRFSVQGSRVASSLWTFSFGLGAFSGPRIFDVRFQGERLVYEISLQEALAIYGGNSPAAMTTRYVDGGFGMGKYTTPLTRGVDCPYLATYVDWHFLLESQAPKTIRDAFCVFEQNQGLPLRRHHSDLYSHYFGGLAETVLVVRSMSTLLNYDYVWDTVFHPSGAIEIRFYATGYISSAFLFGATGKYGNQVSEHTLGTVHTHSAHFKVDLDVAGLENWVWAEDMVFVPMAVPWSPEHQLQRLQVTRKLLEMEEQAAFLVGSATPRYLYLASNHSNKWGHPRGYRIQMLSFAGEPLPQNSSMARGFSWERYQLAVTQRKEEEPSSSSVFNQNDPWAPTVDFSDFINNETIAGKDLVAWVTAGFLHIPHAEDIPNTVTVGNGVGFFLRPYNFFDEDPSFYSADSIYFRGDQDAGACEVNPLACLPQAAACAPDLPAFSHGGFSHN
Description: A radiochemical procedure (Yu P.H., Zuo D.M., Biochem. Pharmacol., 1992, 43, 307-312) was adapted for determining SSAO activities in the human serum. It is based on the determination of the quantity of ^14C-benzaldehyde formed by the enzyme reaction of ^14C-benzylamine.
The preparations containing the serum and the dihydralazine enzyme inhibitor were pre-incubated at room temperature for 20 min. The enzyme reaction was started with ^14C-benzylamine substrate (- 200000 dpm/tube). The samples obtained accordingly were incubated at 37°C for 40 min, then the reaction was stopped by adding 200 µl 2M citric acid solution. In case of the 'blank' sample, citric acid solution was added before adding the substrate, therefore, in this case no enzyme reaction took place. The samples were extracted with 1000 µl 1:1 toluene - ethyl acetate mixture, by vortex method, then centrifuged (2500 g / 5 min). The enzyme activity was determined by liquid scintillation counting (600 µl supernatant + 5ml Aquasafe), using the formula below: ([dpm(sample)-dpm0ʹ] x 1.6 x 10 x 1.5)/(measured substrate activity dpm x mg protein) [formula] standing for: 1.6: extraction volume; 10: molar activity; 1.5: correction factor for the incubation time; dpm: disintegrations per minute (unit of radioactivity)
After giving their informed consent, patients participating in the study were treated for 56 days taking ½ tablet twice daily of a pharmaceutical composition containing 28.9 mg dihydralazine sulphate (i.e. the ½ tablet contained 14.5 mg dihydralazine sulphate).
Serum SSAO activity was determined from blood samples collected before starting the treatment, and at the 14., 28. and 56. day of the treatment. The blood samples were centrifuged and the supernatant was stored at - 80°C until the measurement of the enzyme activity. SSAO activity was determined applying the method described in the example above.

NNc1nnc(NN)c2ccccc12 [dihydralazine]
blood pressure of the animals [1]: did not cause lowering of the blood pressure | serum SSAO activity (SSAO; 2 treated type 2 diabetic patients, oral 14.5 mg dihydralazine sulphate twice daily for 56 days): parallel decrease of serum SSAO activity | SSAO activity (pmol/mg protein/hour) (SSAO; 1. patient, 14. day, before treatment 93.02): 62.42 pmol/mg protein/hour | SSAO activity (pmol/mg protein/hour) (SSAO; 1. patient, 28. day, before treatment 93.02): 85.73 pmol/mg protein/hour | SSAO activity (pmol/mg protein/hour) (SSAO; 1. patient, 56. day, before treatment 93.02): 82.41 pmol/mg protein/hour | SSAO activity (pmol/mg protein/hour) (SSAO; 2. patient, 14. day, before treatment 167.56): 127.96 pmol/mg protein/hour | SSAO activity (pmol/mg protein/hour) (SSAO; 2. patient, 28. day, before treatment 167.56): 186.36 pmol/mg protein/hour | SSAO activity (pmol/mg protein/hour) (SSAO; 2. patient, 56. day, before treatment 167.56): 105.1 pmol/mg protein/hour
